Measured values: US9468607B2, “Ligand directed toroidal nanoparticles for therapy and diagnostic imaging” (WASHINGTON UNIVERSITY, priority 2007, dated 2016)
Like-named read-outs stand apart in the source and are kept apart here.

Key:
[1] = Drug loading efficiency by reverse phase HPLC; type: physicochemical; details: drug encapsulated in nanoparticles
Procedure: Amphiphilic polymer (˜30 mg) was taken up in 3 mL of anhydrous chloroform (Aldrich, Inc.) and gently vortexed for 2 min. The organic phase (with or without the presence of any contrast agent, ˜5 mL of chloroform layer) was dried (anhydrous Na2SO4). Excess of anhydrous chloroform (35 mL) was added to the organic phase and was taken in a 50 mL, long necked test tube. Doxorubicin (0.27 mg/mL) was dissolved in 5 mL of nanopure water (0.2 μM) and was injected followed by gentle vortexing for few minutes. The chloroform was then slowly evaporated under reduced pressure at 45° C. for […], maintaining the pressure at 420-440 mbar. To this, an additional 5 mL of nanopure water (0.2 μM) was injected. The dispersion was sonicated in a Branson ultra sonic bath for ½ h (until a clear dispersion formed) maintaining the bath temperature at 50° C.
Amphiphilic polymer (˜27 mg) was taken up in 3 mL of anhydrous chloroform (Aldrich, Inc.) and gently vortexed for 2 min. The organic phase (with or without the presence of any contrast agent) was dried (anhydrous Na2SO4). […]
Doxorubicin was analyzed by reversed-phase HPLC system with Waters 600S as a controller, Waters 626 pump to deliver mobile phase, Waters 717 auto sampler for injection and Waters 474 scanning fluorescence detector at wavelength ex 470 nm/em 555 nm for detection. […]

[2] = for % Drug remaining: dialysis at 37° C.; for Drug release over 3 days: from nanoparticles, dialysis against 0.9% NaCl, 0.2 mg/ml human serum albumin, 37° C.

Compound | loading efficiency [1] | % Drug remaining ([2]; Day 1, in nanoparticles) | % Drug remaining ([2]; Day 2, in nanoparticles) | % Drug remaining ([2]; Day 3, in nanoparticles) | Drug release over 3 days [2]
CC[C@@]1(O)C(=O)OCc2c1cc1n(c2=O)Cc2cc3ccccc3nc2-1 [Camptothecin] | 99+/−0.1% | 93.48% | 87.57% | 83.38% | 20+/−3.5%
COc1cccc2c1C(=O)c1c(O)c3c(c(O)c1C2=O)C[C@@](O)(C(=O)CO)C[C@@H]3O[C@H]1C[C@H](N)[C@H](O)[C@H](C)O1 [Doxorubicin] | 98+/−0.1% |  |  |  | 12+/−0.6%
